System: rabbit skeletal muscle myofibrils
Assay: Myofibrillar contractility assays (20 μL myofibril drop, 18 mM ATP added)
Assay type: biochemical
Conditions: for % Contraction of imaged myofibril (FIG. 55, 56): after ATP; for IC50: read-out: IC-50 Value (50 percent of the reduction in percent contractility)
Description: Propionic acid, imidazole, and Mg(C2H3O2)2 were purchased from Sigma-Aldrich (St. Louis, MO). Boric Acid and KOH were purchased (EM Industries, Gibbstown, NJ). CaCl2) were purchased from Avantor (Center Valley, PA). We used myofibrils previously extracted and prepared from rabbit skeletal muscle as described by Duong and Reisler (1989). Afterwards, we stored the myofibril suspension with glycerol in a 1:1 ratio at −10° C.
We created a buffer solution with 2.2 mM Mg(C2H3O2)2, 10 mM imidazole, 130 mM propionic acid, 0.1 mM CaCl2) and titrated the solution with 10 M KOH until the pH reached 7. We decided to combine these chemicals and target a pH of 7 in order to simulate regular cell conditions for the myofibrils.
We began by extracting 50 mg of the myofibril suspension and adding 1 mL of our buffer into a 2 mL microcentrifuge tube. Next, we centrifuged the tube three times at 5000 RPM for 5 minutes on an IEC Micromax microcentrifuge, thereby isolating the denser myofibril from the lighter glycerol and unnecessary cellular constituents. After each centrifugation, we disposed of the supernatant and filled the microcentrifuge tube to 1 mL again with our buffer. Furthermore, we used a Fisher Vortex Genie 2™ to dislodge the pellet from the bottom of the microcentrifuge tube, making the next centrifugation effective. Following the series of centrifugations, we stored the myofibrils with the buffer in a 4° C. fridge to maintain their biological function. Every 2 days, we prepared new myofibrils with the method described above because previous batches of myofibril would be subject to rigor mortis: muscle death where myofibrils are indefinitely contracted.
A myofibrillar contractility assay tests the effect of certain chemical compounds on myofibril contraction. The assay involves the interaction of myofibrils with ATP, and we measured sarcomere length before and after the addition of ATP to determine percent contractility of myofibrils.
We created an apparatus for myofibrillar contractility assays by attaching a coverslip to a modified petri dish using electrical tape. Each coverslip used on the apparatus can run three assays total. We placed the apparatus on a ZEISS IM35™ inverted microscope equipped with a CANON POWERSHOT A510™ connected to one of the microscope's ocular lenses. Our apparatus allowed us to precisely adjust the field of view of the microscope, enabling efficient and quality imaging (FIG. 8).
To run an assay, we first placed a 20 μL drop of our prepared myofibrils onto the coverslip. Then, we added chemical modifiers (peptides and antibodies) to each droplet as needed and used a CARL ZEISS PLAN 40/0.65 160/0.17™ objective lens to focus on the myofibrils with the microscope. Since the antibodies have a much larger molecular mass than the peptides, we determined that the antibodies would also require a longer period of time to diffuse throughout the myofibril droplet. We allowed the antibodies a minimum of 5 minutes to diffuse into the myofibril solution while we gave peptide modifiers 30 seconds to settle into the solution.
These myofibrils would be likely to show evidence of contraction when they interacted with the ATP in the assay. We photographed the chosen myofibril before the addition of ATP. Then, we pipetted 2 μL of 18 mM ATP on the myofibril droplet, and we typically observed a visible contraction within 30 seconds. We needed to carefully watch the camera screen when adding the ATP because the addition of ATP solution onto the drop or the motion of the myofibril as it contracted would occasionally displace the myofibril. If the myofibril moved, we adjusted our field of view accordingly so that the myofibril was visible once again.
After the contraction concluded, we re-imaged the myofibril to compare the current sarcomere length with the initial sarcomere length. […]

Compound	% Contraction (20 nM) [%]	After (sarcomere length after ATP) (20 nM) [μm]	Before (sarcomere length before ATP) (20 nM) [μm]	% Contraction (40 nM) [%]	After (sarcomere length after ATP) (40 nM) [μm]	Before (sarcomere length before ATP) (40 nM) [μm]	% Contraction of imaged myofibril (FIG. 55, 56) (40 nM) [%]	% Contraction (80 nM) [%]	After (sarcomere length after ATP) (80 nM) [μm]	Before (sarcomere length before ATP) (80 nM) [μm]	% Contraction (200 nM) [%]	After (sarcomere length after ATP) (200 nM) [μm]	Before (sarcomere length before ATP) (200 nM) [μm]	induction of contraction compared to control group (high concentrations)	EC50 (read-out: EC-50 value (50 percent of the increase in percent contraction)) [nM]	IC50 [nM]	% Contraction (10 nM) [%]	After (sarcomere length after ATP) (10 nM) [μm]	Before (sarcomere length before ATP) (10 nM) [μm]
CSCC[C@H](NC(=O)[C@H](CCC(=O)O)NC(=O)[C@H](CCCNC(=N)N)NC(=O)[C@H](CCC(=O)O)NC(=O)[C@H](CC(=O)O)NC(=O)[C@H](CCC(=O)O)NC(=O)[C@H](CC(C)C)NC(=O)[C@H](CCCNC(=N)N)NC(=O)[C@H](CCC(=O)O)NC(=O)[C@H](CC(N)=O)NC(=O)[C@H](CCSC)NC(=O)[C@@H](N)CCC(=O)O)C(=O)N[C@@H](CCCCN)C(=O)N[C@@H](C)C(=O)N[C@@H](CCC(=O)O)C(=O)N[C@@H](CC(C)C)C(=O)N[C@H](C(=O)N[C@@H](C)C(=O)N[C@@H](CCCCN)C(=O)O)[C@@H](C)O [Destabilizer]	21 ± 3	1.7	2.2	25 ± 8	1.7	2.2	30	32 ± 4	1.5	2.3	35 ± 7	1.5	2.3	more than two-fold	8 ± 4	12 ± 6			
C[C@H](NC(=O)[C@H](CCCCN)NC(=O)[C@H](Cc1ccccc1)NC(=O)[C@H](CCCCN)NC(=O)[C@H](CCCCN)NC(=O)[C@H](CCCCN)NC(=O)[C@H](CCCCN)NC(=O)[C@H](CCCCN)NC(=O)[C@H](CCCCN)NC(=O)[C@H](CCCCN)NC(=O)[C@@H](N)CCCCN)C(=O)N[C@@H](CCCCN)C(=O)N[C@@H](CCCCN)C(=O)N[C@@H](CCCCN)C(=O)N[C@@H](CCCCN)C(=O)N[C@@H](CCCCN)C(=O)N[C@@H](CCCCN)C(=O)O [Stabilizer]				10 ± 1	1.9	2.2	11	9 ± 2	2.0	2.2	8 ± 1	2.0	2.2			68 ± 27	12 ± 2	1.9	2.1
